These are literature values, as cited in publication PMC6344942 (SLAS discovery : advancing life sciences R & D, 2017).

SMILES strings stand for the structures. Where two headings read alike, the source gives them in different places.

In the data set the target is Ubc9 (Homo sapiens, UniProt P63279).
Ubc9, sequence (P63279 whole entry): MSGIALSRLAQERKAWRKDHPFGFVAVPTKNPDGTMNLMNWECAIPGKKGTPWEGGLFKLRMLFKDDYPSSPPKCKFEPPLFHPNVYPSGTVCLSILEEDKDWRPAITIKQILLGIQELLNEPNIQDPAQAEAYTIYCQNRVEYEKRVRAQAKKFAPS

For `O=c1cc(-c2ccc(O)c(O)c2O)oc2ccccc12` [Compound 2-D08, 2-D08], the IC50 (prevents transfer of SUMO from Ubc9~SUMO thioester to substrate) is 6 µM.

Turning to `COC(=CC(=O)O)C1c2cc3ccc(-c4ccc5cc6c(c(O)c5c4O)C(=O)CC(C)(O)C6C(=CC(=O)O)OC)c(O)c3c(O)c2C(=O)CC1(C)O` (centres unmarked) [spectomycin B1], under “Ubc9 inhibitor”, the IC50 is 4.4 µM.
